Experiment: Inhibition of Glycogen synthase kinase-3beta (GSK3-beta)
In the case of `O=C1NC(=O)C2=C1c1cn(c3ncccc13)CCOCCOCCOCCOCCOCCn1cc2c2cccnc21` [17,20,23,26,29-pentaoxa-4,12,14,32,34-pentaazahexacyclo[30.6.1.17,14.02,6.08,13.033,38]tetraconta-1(39),2(6),7(40),8,10,12,33,35,37-nonaene-3,5-dione], the IC50 is reported as 403 nM.
`O=C1NC(=O)C2=C1c1cn(c3ccccc13)CCOCCOCCOCCOCCOCCn1cc2c2ccccc21` [17,20,23,26,29-pentaoxa-4,14,32-triazahexacyclo[30.6.1.17,14.02,6.08,13.033,38]tetraconta-1(39),2(6),7(40),8,10,12,33,35,37-nonaene-3,5-dione] showed an IC50 of 51 nM.
For `O=C1NC(=O)C2=C1c1cn(c3ncccc13)CCOCCOCCOCCOCCn1cc2c2cccnc21` [17,20,23,26-tetraoxa-4,12,14,29,31-pentaazahexacyclo[27.6.1.17,14.02,6.08,13.030,35]heptatriaconta-1(36),2(6),7(37),8,10,12,30,32,34-nonaene-3,5-dione], the IC50 was 48 nM.
Work on `O=C1NC(=O)C2=C1c1cn(c3ccccc13)CCOCCOCCOCCOCCn1cc2c2ccccc21` [17,20,23,26-tetraoxa-4,14,29-triazahexacyclo[27.6.1.17,14.02,6.08,13.030,35]heptatriaconta-1(36),2(6),7(37),8,10,12,30,32,34-nonaene-3,5-dione] yielded an IC50 of 26 nM.
For `O=C1NC(=O)C2=C1c1cn(c3ncccc13)CCOCCOCCOCCn1cc2c2cccnc21` [17,20,23-trioxa-4,12,14,26,28-pentaazahexacyclo[24.6.1.17,14.02,6.08,13.027,32]tetratriaconta-1(33),2(6),7(34),8,10,12,27,29,31-nonaene-3,5-dione], the IC50 was 34 nM.
`O=C1NC(=O)C2=C1c1cn(c3ncccc13)CCOCCOCCn1cc2c2cccnc21` [17,20-dioxa-4,12,14,23,25-pentaazahexacyclo[21.6.1.17,14.02,6.08,13.024,29]hentriaconta-1(30),2(6),7(31),8,10,12,24,26,28-nonaene-3,5-dione] showed an IC50 of 620 nM.
With `O=C1NC(=O)C2=C1c1cn(c3ccccc13)CCOCCOCCn1cc2c2cccnc21` [17,20-dioxa-4,12,14,23-tetraazahexacyclo[21.6.1.17,14.02,6.08,13.024,29]hentriaconta-1(30),2(6),7(31),8,10,12,24,26,28-nonaene-3,5-dione] the IC50 was 138 nM.
Work on `O=C1NC(=O)C2=C1c1cn(c3ccccc13)CCOCCOCCn1cc2c2ccccc21` [17,20-dioxa-4,14,23-triazahexacyclo[21.6.1.17,14.02,6.08,13.024,29]hentriaconta-1(30),2(6),7(31),8,10,12,24,26,28-nonaene-3,5-dione] yielded an IC50 of 136 nM.

From BindingDB's records for doi:10.1021/jm030115o (Johnson and Johnson Pharmaceutical Research and Development, 2003)
